Experimental data from patent US7063946B2, “Methods, reagents, kits and apparatus for protein function analysis” (Meso Scale Technologies, LLC., priority 2001, dated 2006).
pIC50: −log10 of the molar value. Where no end group is shown, it is not given here. [ ]: non-standard residue; d: D form. pY = N[C@@H](Cc1ccc(OP(=O)(O)O)cc1)C(=O)O

Experiments:
[1] = tested on: autophosphorylation (phosphotyrosine); assay: Autophosphorylation activity assay of immobilized in vitro translated protein; format: biochemical; conditions: 0.5 μl of TnT reaction
Experimental: (§1) Proteins were produced from DNA plasmids of Mock Luciferase, Promega, tyrosine kinase clone Spleen Tyrosine kinase (SYK, IMAGE ID# 3870426) and Eph receptor-A7 (EphA7, IMAGE ID# 3991628) (Incyte Genomics, CA) and immobilized on streptavidin or avidin coated NPT-IPR plates as described in the Example 7. To promote autophosphorylation in these immobilized and purified proteins, Mn++ ions were added in a 50 μl reaction containing 5 mM MgCl2, 5 mM MnCl2, 100 μM ATP, 25 mM Tris-HCl buffer pH 7.4, 0.05 mM Na3VO4, 0.004% TritonX-100, 2 mM DTT and EDTA-free protease inhibitor (Roche Molecular Biochemicals). This mixture was incubated with shaking at room temperature overnight to allow autophosphorylation. Following this incubation, wells were washed 2 times with TT-buffer and 2 times with water. Following this step, 50 ng Sulfo-TAG labeled anti-phosphotyrosine in buffer containing 25 mM Tris-HCl buffer pH 7.4, 5 mM MgCl2, 0.05 mM Na3VO4, 0.004% TritonX-100, 2 mM DTT and 0.05% IgG in a final volume of 50 μl was added followed by incubation at room temperature for 45 min. The unbound reagents were removed by one time washing with water, and the TAG label was detected in presence of 150 μl IPR assay buffer (0.4 mM Gly—Gly buffer, pH 7.8, 1 mM EDTA, 0.1 M TPA). The ECL signals were measured using an imaging plate reader.

pEY = assay: In vitro kinase library screen: activity towards pEY; format: biochemical; conditions: 5 ul of expressed protein
Experimental: (§2) Proteins were produced in an in vitro transcription and translation reaction. […] The unbound components of the reaction containing endogenous kinases were removed by three washes with TT-buffer (25 mM Tris-HCl buffer pH 7.4 and 0.004% Triton), two five minutes washings with high-salt wash buffer (25 mM Tris-HCl buffer pH 7.4, 0.004% Triton, 1M NaCl and 5 mM DTT) and 3 more washes with TT-buffer. To these immobilized and purified proteins a tyrosine kinase substrate, 5 nM pEY (poly Glu-Tyr, Sigma, MO), was added in a 50 μl reaction solution containing 5 mM MgCl2, 5 mM MnCl2, 100 μM ATP, 25 mM Tris-HCl buffer pH 7.4, 0.05 mM Na3VO4, 0.004% TritonX-100, 2 mM DTT and EDTA-free protease inhibitor (Roche Molecular Biochemicals). This mixture was incubated with shaking at room temperature overnight to allow phosphorylation of the pEY substrate by the immobilized kinases. Following this incubation, 45 μl of this mixture was transferred to a streptavidin or avidin-coated NPT IPR plate coated with biotinylated anti-phosphotyrosine antibody (PY20, Zymed labs, CA) followed by incubation for 30 minutes at room temperature to allow the binding of the phosphorylated pEY substrate to the PY20 coated NPT plate. Following this binding step, 50 ng Sulfo-TAG labeled anti-phosphotyrosine in buffer containing 25 mM Tris-HCl buffer pH 7.4, 5 mM MgCl2, 0.05 mM Na3VO4, 0.004% TritonX-100, 2 mM DTT and 0.05% IgG was added followed by incubation at room temperature for 30 mm. The unbound reagents were removed by one time washing with water, and the TAG label was detected in presence of 150 μl IPR assay buffer (0.4 mM Gly-Gly buffer, pH 7.8, 1 mM EDTA, 0.1 M TPA). The ECL signals were measured using an imaging plate reader.
(§3) Proteins were produced in an in vitro transcription and translation reaction as described in the Materials and Methods. […] The reaction was stopped by mixing with BB2 buffer. Biotinylated proteins from 50 μl of the mixture (representing 0.5 μl to 5 μl of TnT reaction) were immobilized onto streptavidin or avidin coated NPT-IPR plates by shaking at room temperature for 45 min. The activity of the immobilized protein towards pEY or autophosphorylation was further assayed by the methods described in examples 7 and 8.

[2] = tested on: autophosphorylation (phosphotyrosine); assay: In vitro kinase library screen: autophosphorylation; format: biochemical
Experimental: as §1, §3

CSK = molecular target: T1, CSK (Homo sapiens, UniProt P41240); assay: Kinase inhibitor profiling, pEY phosphorylation; format: biochemical
T1 construct: specificity data for proteins generated from a library of eighteen full-length clones; host or cells: rabbit reticulocyte lysate, TnT coupled in vitro transcription/translation (cell-free)
T1 sequence (P41240 whole entry): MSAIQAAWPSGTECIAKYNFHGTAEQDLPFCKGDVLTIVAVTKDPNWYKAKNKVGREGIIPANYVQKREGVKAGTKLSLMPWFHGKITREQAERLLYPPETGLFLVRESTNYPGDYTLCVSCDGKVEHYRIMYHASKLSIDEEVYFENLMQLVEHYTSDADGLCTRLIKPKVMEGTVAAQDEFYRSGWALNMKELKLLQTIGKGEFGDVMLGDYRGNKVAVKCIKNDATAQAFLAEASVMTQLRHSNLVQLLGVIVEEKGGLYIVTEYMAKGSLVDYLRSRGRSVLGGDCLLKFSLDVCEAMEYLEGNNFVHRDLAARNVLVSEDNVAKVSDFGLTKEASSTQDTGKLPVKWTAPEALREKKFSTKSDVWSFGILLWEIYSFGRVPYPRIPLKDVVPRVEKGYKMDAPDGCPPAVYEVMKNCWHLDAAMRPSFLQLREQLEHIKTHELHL
Experimental: as §2
(§4) Proteins were produced using 100 ng of plasmid DNA Mock (Luciferase, Promega) or tyrosine kinases (Fert2 IMAGE ID # 4485050, FGFR1 IMAGE ID # 4037899, Fgfr2 IMAGE ID # 2654352, Src IMAGE ID # 3156400, BMX IMAGE ID # 3919253, LCK IMAGE ID # 4191610, Epha7 IMAGE ID # 3991628, Ephb4 IMAGE ID # 4013934, Tek IMAGE ID # 3482498, HCK IMAGE ID # 4778819, BTK IMAGE ID # 4478463, CSK IMAGE ID # 4398416, SYK IMAGE ID # 3870426, FGR IMAGE ID # 4419973, PTK2B IMAGE ID # 4339456, FRK(IMAGE ID # 4515877, Kit IMAGE ID # 2644960, Fgfr-4 IMAGE ID # 4239139, NTRK3 IMAGE ID # 4181574, Kdr IMAGE ID # 4238984, Incyte Genomics, CA) and immobilized on SA or avidin coated NPT-IPR plates as described in previous examples. The unbound components of the translation reaction (including any endogenous kinases) were removed by 3 washes with TT-buffer (25 mM Tris-HCl buffer pH 7.4 and 0.004% Triton), two five minutes washes with high-salt wash buffer (25 mM Tris-HCl buffer pH 7.4, 0.004% Triton, 1M NaCl and 5 mM DTT) and 3 washes with TT-buffer. […] The mixture was incubated at room temperature for 10 mm before starting the kinase reaction by adding 25 μl of 200 μM ATP in buffer A. This mixture was incubated with intermittent shaking at room temperature for 2 hours to overnight to allow (a) phosphorylation of the pEY substrate and (b) autophosphorylation of the immobilized kinases. Autophosphorylation and phosphorylation of the pEY was measured as described in Examples 7 and 8.
(§5) The ECL signal in control wells produced by tyrosine kinases was compared to the wells containing inhibitor compounds. The signal produced from Mock was negligible.

Fgfr4 [3] = molecular target: T2, Fgfr4 (Mus musculus, UniProt Q03142); assay: Kinase inhibitor profiling, pEY phosphorylation; format: biochemical
T2 construct: specificity data for proteins generated from a library of eighteen full-length clones; biotin on random lysines (biotin-Lys-tRNA); host or cells: rabbit reticulocyte lysate, coupled transcription/translation (TnT, Promega)
T2 sequence (Q03142 17-799): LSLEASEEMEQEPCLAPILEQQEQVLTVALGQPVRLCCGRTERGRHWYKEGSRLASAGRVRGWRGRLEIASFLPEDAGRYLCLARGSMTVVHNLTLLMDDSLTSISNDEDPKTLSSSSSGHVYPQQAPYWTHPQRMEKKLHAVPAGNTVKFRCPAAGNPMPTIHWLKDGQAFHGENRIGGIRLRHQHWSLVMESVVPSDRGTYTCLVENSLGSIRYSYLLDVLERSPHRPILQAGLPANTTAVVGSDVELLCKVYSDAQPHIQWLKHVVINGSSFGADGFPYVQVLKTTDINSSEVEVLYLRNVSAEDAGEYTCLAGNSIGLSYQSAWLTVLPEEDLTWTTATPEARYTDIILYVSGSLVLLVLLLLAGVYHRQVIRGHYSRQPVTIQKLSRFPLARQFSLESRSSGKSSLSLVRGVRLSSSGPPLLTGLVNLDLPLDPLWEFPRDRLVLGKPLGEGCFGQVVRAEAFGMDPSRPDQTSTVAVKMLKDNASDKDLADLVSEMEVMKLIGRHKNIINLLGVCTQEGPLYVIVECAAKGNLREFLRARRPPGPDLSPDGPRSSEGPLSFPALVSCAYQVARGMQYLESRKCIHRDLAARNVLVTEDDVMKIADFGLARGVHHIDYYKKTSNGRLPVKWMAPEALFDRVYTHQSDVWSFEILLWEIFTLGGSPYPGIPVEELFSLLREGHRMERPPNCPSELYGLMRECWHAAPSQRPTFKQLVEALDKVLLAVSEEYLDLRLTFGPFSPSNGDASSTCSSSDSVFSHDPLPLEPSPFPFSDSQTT
Experimental: as §2, §4, §5

HCK = molecular target: T3, HCK (Homo sapiens, UniProt P08631); assay: Kinase inhibitor profiling, pEY phosphorylation; format: biochemical
T3 construct: specificity data for proteins generated from a library of eighteen full-length clones; host or cells: rabbit reticulocyte lysate, TnT coupled in vitro transcription/translation (cell-free)
T3 sequence (P08631 whole entry): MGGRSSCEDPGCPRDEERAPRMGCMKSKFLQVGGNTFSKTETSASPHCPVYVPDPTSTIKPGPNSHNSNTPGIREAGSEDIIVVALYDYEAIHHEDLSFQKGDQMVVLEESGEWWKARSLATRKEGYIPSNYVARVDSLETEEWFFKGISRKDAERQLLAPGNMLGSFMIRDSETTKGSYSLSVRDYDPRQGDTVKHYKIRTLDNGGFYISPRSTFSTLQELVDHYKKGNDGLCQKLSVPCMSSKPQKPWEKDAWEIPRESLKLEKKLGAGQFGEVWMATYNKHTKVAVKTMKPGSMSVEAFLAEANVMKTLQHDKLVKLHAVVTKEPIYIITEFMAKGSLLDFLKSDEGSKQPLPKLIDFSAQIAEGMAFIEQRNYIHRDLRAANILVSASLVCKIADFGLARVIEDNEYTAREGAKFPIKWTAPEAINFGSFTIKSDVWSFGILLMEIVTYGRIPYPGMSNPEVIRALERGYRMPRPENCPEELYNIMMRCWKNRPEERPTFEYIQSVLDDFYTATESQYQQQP
Experimental: as §2, §4, §5

Kit [4] = molecular target: T4, Kit (Mus musculus, UniProt P05532); assay: Kinase inhibitor profiling, pEY phosphorylation; format: biochemical
T4 construct: specificity data for proteins generated from a library of eighteen full-length clones; biotin on random lysines (biotin-Lys-tRNA); host or cells: rabbit reticulocyte lysate, coupled transcription/translation (TnT, Promega)
T4 sequence (P05532 25-979): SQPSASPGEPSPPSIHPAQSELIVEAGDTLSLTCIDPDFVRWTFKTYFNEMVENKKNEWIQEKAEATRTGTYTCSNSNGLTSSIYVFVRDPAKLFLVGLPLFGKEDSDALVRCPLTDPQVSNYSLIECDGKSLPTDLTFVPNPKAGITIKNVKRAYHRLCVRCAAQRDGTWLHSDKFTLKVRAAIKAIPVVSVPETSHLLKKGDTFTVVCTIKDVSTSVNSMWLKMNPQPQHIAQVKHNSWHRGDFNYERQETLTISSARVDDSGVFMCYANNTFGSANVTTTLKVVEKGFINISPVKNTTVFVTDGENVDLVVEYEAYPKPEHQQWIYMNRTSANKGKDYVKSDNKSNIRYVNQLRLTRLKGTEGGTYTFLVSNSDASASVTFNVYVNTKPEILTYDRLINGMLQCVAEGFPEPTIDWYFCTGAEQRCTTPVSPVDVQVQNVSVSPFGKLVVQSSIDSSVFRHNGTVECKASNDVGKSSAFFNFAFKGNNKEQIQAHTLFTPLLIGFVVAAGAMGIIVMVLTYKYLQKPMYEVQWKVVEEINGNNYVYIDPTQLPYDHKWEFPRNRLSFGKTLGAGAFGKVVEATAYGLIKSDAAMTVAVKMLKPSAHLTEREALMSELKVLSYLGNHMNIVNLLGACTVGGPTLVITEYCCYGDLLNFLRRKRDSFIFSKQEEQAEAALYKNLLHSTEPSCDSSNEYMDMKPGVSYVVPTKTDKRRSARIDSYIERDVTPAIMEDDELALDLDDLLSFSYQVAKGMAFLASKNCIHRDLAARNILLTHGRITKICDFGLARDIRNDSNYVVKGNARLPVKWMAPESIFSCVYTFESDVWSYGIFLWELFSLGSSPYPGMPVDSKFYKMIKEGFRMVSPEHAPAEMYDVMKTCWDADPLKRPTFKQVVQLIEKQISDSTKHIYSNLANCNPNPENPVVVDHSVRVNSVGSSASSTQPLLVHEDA
Experimental: as §2, §4, §5

PTK2B [5] = molecular target: T5, PTK2B (Homo sapiens, UniProt Q14289); assay: Kinase inhibitor profiling, pEY phosphorylation; format: biochemical
T5 construct: specificity data for proteins generated from a library of eighteen full-length clones; host or cells: rabbit reticulocyte lysate, TnT coupled in vitro transcription/translation (cell-free)
T5 sequence (Q14289 whole entry): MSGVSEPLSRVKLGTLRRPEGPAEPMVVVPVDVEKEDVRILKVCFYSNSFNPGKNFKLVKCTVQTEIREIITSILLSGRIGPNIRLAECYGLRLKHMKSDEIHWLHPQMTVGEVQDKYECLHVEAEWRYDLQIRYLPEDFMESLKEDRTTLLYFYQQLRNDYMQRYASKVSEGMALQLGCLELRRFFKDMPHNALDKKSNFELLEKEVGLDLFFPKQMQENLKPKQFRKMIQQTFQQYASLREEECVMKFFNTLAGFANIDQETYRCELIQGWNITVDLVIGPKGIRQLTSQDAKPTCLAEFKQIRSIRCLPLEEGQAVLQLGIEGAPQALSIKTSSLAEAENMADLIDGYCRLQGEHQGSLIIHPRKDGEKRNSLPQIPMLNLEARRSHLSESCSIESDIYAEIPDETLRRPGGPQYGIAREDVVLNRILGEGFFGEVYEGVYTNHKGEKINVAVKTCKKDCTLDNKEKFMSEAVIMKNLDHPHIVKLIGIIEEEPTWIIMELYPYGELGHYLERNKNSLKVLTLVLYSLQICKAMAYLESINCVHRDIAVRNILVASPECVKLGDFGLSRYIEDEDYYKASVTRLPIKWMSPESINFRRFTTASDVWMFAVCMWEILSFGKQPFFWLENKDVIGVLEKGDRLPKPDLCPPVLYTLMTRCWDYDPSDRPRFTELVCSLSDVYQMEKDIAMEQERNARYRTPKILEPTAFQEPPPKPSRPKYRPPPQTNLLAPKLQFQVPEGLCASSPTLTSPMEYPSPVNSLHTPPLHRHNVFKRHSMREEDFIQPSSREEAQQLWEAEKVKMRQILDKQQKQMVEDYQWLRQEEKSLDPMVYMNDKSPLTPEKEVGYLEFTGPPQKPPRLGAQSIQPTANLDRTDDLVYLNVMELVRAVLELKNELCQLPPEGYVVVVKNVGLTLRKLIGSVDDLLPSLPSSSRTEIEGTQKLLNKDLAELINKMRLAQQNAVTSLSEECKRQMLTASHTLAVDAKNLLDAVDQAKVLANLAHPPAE
Experimental: as §2, §4, §5

SYK [6] = molecular target: T6, SYK (Homo sapiens, UniProt P43405); assay: Kinase inhibitor profiling, pEY phosphorylation; format: biochemical
T6 construct: autophosphorylation activity from full-length clones Spleen Tyrosine Kinase (SYK) and Eph receptor-A7 (EphA7); host or cells: rabbit reticulocyte lysate, TnT coupled in vitro transcription/translation (cell-free)
Experimental: as §2, §4, §5

Fgfr4 [7] = molecular target: T2, Fgfr4; assay: Kinase inhibitor profiling, autophosphorylation; format: biochemical
Experimental: as §1, §4, §5

Kit [8] = molecular target: T4, Kit; assay: Kinase inhibitor profiling, autophosphorylation; format: biochemical
Experimental: as §1, §4, §5

PTK2B [9] = molecular target: T5, PTK2B; assay: Kinase inhibitor profiling, autophosphorylation; format: biochemical
Experimental: as §1, §4, §5

SYK [10] = molecular target: T6, SYK; assay: Kinase inhibitor profiling, autophosphorylation; format: biochemical
Experimental: as §1, §4, §5

FRK = assay: Kinase inhibitor profiling, autophosphorylation; format: biochemical
Experimental: as §1, §4, §5

[11] = tested on: tyrosine kinases reported to be the target of each inhibitor; conditions: read-out: reported IC50 concentration (1× concentration); for the kinase reported to be the target of the inhibitor; cited from earlier work
EGFR = molecular target: T7, EGFR (Homo sapiens, UniProt P00533); assay: EGFR binding assay, bound EGFR detected by its tyrosine kinase activity towards pEY; conditions: Grb2 plasmid, +EGFR, in presence of the peptide
T7 construct: autophosphorylated tyrosines (self-phosphorylated with ATP before use); purchased Sigma Chemical Co, MO
Experimental: Proteins were produced in an in vitro transcription and translation reaction using 40–100 ng of plasmid DNA. […] The unbound components of the reaction containing endogenous kinases were removed by three washes with TT-buffer (25 mM Tris-HCl buffer pH 7.4 and 0.004% Triton), two five minutes washings with high-salt wash buffer (25 mM Tris-HCl buffer pH 7.4, 0.004% Triton, 1M NaCl and 5 mM DTT) and 3 more washes with TT-buffer. […] The unbound EGFR was washed by 4 times washing with TT-buffer (25 mM Tris-HCl buffer pH 7.4 and 0.004% Triton). The amount of EGFR bound to the reticulocyte lysate expressed protein was determined by detecting the kinase activity of EGFR. A tyrosine kinase substrate, 5 nM pEY (poly Glu-Tyr, Sigma, MO) was added in a 50 μl reaction containing 5 mM MgCl2, 5 mM MnCl2, 100 μM ATP, 25 mM Tris-HCl buffer pH 7.4, 0.05 mM Na3VO4, 0.004% TritonX-100, 2 mM DTT and EDTA-free protease inhibitor (Roche Molecular Biochemicals). This mixture was incubated with shaking at room temperature for 1 or 12 hours to allow phosphorylation of the pEY substrate by the EGFR. […]
The unbound reagents were removed by one time washing with TT-buffer (25 mM Tris-HCl buffer pH 7.4 and 0.004% Triton), and the TAG label was detected in presence of 150 μl IPR assay buffer (0.4 mM Gly-Gly buffer, pH 7.8, 1 mM EDTA, 0.1 M TPA). The ECL signals were measured using an imaging plate reader.

With “3991628: IMAGE clone protein: EPHA7, Eph receptor A7 [compound 3991628]” the ECL signal [1] was 39,967, the “fold higher ECL signal than background produced by Mock (Luciferase)” value [1] was about 47 fold and the HTS signal (pEY) was 24,930. The ECL signal [2] was 115,662.
With `O=C1Nc2ccccc2/C1=C/c1ccc[nH]1` [Oxindole 1] the “Inhibition specificity towards pEY phosphorylation at 10X IC50, CSK” value (CSK) was “M (medium inhibition (“M”=between 25 to 50% of the activity remaining))”, the “Inhibition specificity towards pEY phosphorylation at 10X IC50, Fgfr4” value (Fgfr4 [3]) was “M (medium inhibition (“M”=between 25 to 50% of the activity remaining))” and the “Inhibition specificity towards pEY phosphorylation at 10X IC50, HCK” value (HCK) was “L (low inhibition (“L”=between 50–75% of the activity remaining))”. The “Inhibition specificity towards pEY phosphorylation at 10X IC50, Kit” value (Kit [4]) was “H (high inhibition (“H”=less than 25% of the activity remaining))”, the “Inhibition specificity towards pEY phosphorylation at 10X IC50, PTK2B” value (PTK2B [5]) was “M (medium inhibition (“M”=between 25 to 50% of the activity remaining))” and the “Inhibition specificity towards pEY phosphorylation at 10X IC50, SYK” value (SYK [6]) was “L (low inhibition (“L”=between 50–75% of the activity remaining))”. The “Inhibition specificity towards Autophosphorylation at 10X IC50, Fgfr4” value (Fgfr4 [7]) was “L (low inhibition (“L”=between 50–75% of the activity remaining))”, the “Inhibition specificity towards Autophosphorylation at 10X IC50, Kit” value (Kit [8]) was “M (medium inhibition (“M”=between 25 to 50% of the activity remaining))” and the “Inhibition specificity towards Autophosphorylation at 10X IC50, PTK2B” value (PTK2B [9]) was “L (low inhibition (“L”=between 50–75% of the activity remaining))”. The “Inhibition specificity towards Autophosphorylation at 10X IC50, SYK” value (SYK [10]) was “L (low inhibition (“L”=between 50–75% of the activity remaining))”.
For `CC(C)(C)n1nc(-c2ccc(Cl)cc2)c2c(N)ncnc21` [PP2], the “Inhibition specificity towards pEY phosphorylation at 10X IC50, Kit” value (Kit [4]) is given as “L (low inhibition (“L”=between 50–75% of the activity remaining))”, the “Inhibition specificity towards Autophosphorylation at 10X IC50, FRK” value (FRK) is given as “L (low inhibition (“L”=between 50–75% of the activity remaining))” and the pIC50 [11] is given as 8.40.
In the case of “LPVPE(p)YINQSVPKRPAGSVC (LPVPE[pY]INQSVPKRPAGSVC) [Phosphopeptide]”, the ECL signal (EGFR) was 7,348.
With “Peptide: un-phosphorylated form of the EGFR 1063–1081 peptide (SEQ ID NO: 8) (LPVPEYINQSVPKRPAGSVC; Synthetic Fragment of EGFR-Y1068)” the ECL signal (EGFR) was 34,055.
